The values below come from ChEMBL document CHEMBL3886652, “Arlethynyl derivatives” (2016).

pEC50: −log10 of the molar value.

The target of the assay is Metabotropic glutamate receptor 5 (Homo sapiens, UniProt P41594). Briefly: Intracellular Ca2+ Mobilization Assay: A monoclonal HEK-293 cell line stably transfected with a cDNA encoding for the human mGlu5a receptor was generated; for the work with mGlu5 Positive Allosteric Modulators (PAMs), a cell line with low receptor expression levels and low constitutive receptor activity was selected to allow the differentiation of agonistic versus PAM activity. Cells were cultured according to standard protocols (Freshney, 2000) in Dulbecco's Modified Eagle Medium with high glucose supplemented with 1 mM glutamine, 10% (vol/vol) heat-inactivated bovine calf serum, Penicillin/Streptomycin, 50 μg/ml hygromycin and 15 μg/ml blasticidin (all cell culture reagents and antibiotics from Invitrogen, Basel, Switzerland). bout 24 hrs before an experiment, 5×10^4 cells/well were seeded in poly-D-lysine coated, black/clear-bottomed 96-well plates. The cells were loaded with 2.5 μM Fluo-4AM in loading buffer (1×HBSS, 20 mM HEPES) for 1 hr at 37 °C. and washed five times with loading buffer. The cells were transferred into a Functional Drug Screening System 7000 (Hamamatsu, Paris, France), and 11 half logarithmic serial dilutions of test compound at 37 °C. were added and the cells were incubated for 10-30 min. with on-line recording of fluorescence. […]. It counts as cell-based, HEK293.
Sequence of Metabotropic glutamate receptor 5 (P41594 whole entry): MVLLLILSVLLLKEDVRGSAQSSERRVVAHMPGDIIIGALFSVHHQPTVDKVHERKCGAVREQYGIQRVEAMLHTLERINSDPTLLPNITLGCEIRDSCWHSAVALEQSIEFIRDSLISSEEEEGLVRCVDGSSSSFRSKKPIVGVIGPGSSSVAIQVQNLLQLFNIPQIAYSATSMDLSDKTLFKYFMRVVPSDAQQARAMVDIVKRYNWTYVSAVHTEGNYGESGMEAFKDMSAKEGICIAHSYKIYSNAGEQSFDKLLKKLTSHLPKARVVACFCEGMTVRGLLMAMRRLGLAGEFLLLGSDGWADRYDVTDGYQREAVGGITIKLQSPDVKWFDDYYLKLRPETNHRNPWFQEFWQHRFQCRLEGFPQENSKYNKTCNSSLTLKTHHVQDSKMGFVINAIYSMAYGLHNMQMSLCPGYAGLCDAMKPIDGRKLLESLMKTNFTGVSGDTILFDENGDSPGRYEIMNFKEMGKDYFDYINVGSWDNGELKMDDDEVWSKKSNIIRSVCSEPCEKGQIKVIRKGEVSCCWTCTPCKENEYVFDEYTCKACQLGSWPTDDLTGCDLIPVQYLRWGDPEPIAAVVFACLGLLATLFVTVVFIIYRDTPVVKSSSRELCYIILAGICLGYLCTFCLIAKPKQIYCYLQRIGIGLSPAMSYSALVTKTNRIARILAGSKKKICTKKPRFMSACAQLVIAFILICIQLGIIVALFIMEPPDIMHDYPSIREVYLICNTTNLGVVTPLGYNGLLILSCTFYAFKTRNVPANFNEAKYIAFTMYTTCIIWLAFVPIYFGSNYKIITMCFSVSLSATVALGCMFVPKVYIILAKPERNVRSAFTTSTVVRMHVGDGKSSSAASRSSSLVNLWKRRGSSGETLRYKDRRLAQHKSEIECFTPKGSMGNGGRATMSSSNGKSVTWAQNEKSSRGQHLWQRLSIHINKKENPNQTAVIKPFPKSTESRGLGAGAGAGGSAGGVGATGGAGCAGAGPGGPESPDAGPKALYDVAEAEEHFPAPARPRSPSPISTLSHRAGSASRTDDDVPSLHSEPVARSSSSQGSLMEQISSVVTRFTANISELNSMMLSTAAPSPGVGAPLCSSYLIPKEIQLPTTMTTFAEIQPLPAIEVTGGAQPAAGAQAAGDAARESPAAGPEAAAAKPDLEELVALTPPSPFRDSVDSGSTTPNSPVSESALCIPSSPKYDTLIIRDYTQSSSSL

As to `CN1CC(C)(C)CN(c2ccc(C#Cc3ccccc3)cn2)C1=O`, the pEC50 is 7.48. Consider `CCN1C(=O)N(c2ccc(C#Cc3cccnc3)cn2)C2CCCCC21` (configuration not stated), for which the pEC50 was 7.16.
